In US20230141981A1, “NOVEL COMPOUNDS AND COMPOSITION FOR TARGETED THERAPY OF KIDNEY-ASSOCIATED CANCERS” (SHANGHAI MICURX PHARMACEUTICALS CO., LTD, priority 2020, published 2023):
One block for each compound: values may come before it. Bridge positions count the residues as written; N and C are the ends. Square brackets hold non-standard residues; d marks the D form. Peptide text beside a SMILES is read from it. * marks the point of attachment. X1 = CNC(=O)c1ccccc1Sc1ccc2c(/C=C/c3ccccn3)nn(C(=O)N(CCNC(=O)CC[C@H](N)C(=O)O)CCC(=O)*)c2c1; X3 = CNC(=O)c1ccccc1Sc1ccc2c(/C=C/c3ccccn3)nn(C(=O)*)c2c1; Dab = NCC[C@H](N)C(=O)O

Tests used:
[1] = Mouse PK: axitinib concentration in blood plasma and kidney tissue post-administration; type: in vivo; settings: oral gavage, single dose 10 mg/kg
Procedure: Preferential accumulation of compounds provided herein in kidneys (or near the site of a kidney cancer) may be evaluated by pharmacokinetic (PK) tests, such as in a standard rat PK test.
In PK studies, the levels (concentration) of a therapeutic drug is determined in key body compartments, such as blood and select organ tissues, is determined over a given time course. […] For therapy of renal cancers, the targeted organ is kidney.

Caki-1 = experiment: In vitro inhibition of cancer cells, CTG assay, 72 h; type: cell-based, human; settings: Caki-1, 72 h incubation
From the text: In vitro activity of compounds provided herein may be assessed by standard testing procedures using various cancer cell lines (alongside normal cell comparators), such as described, for example, in ACS Pharmacol. Transl. Sci. 2019, vol. 2, p. 18; J. Med. Chem. 2018, vol. 61, p. 5304; and methods in references cited therein.
Therein, Caki-1 is a human clear cell renal cell carcinoma (ccRCC) line. The ACTHN cell line was derived from the pleural effusion of a patient with metastatic renal carcinoma. The 786-O cell line is a hypertriploid renal cancer cell carcinoma cell line. Generally, cells were plated into […] microplates and pre-incubated for 24 h. Subsequently, the test compound solutions were added, and cells growth inhibition analyzed with 9-point data plot. After 72 h of the incubation, the number and proportion of the viable cells was determined by CTG assay, and IC50 values calculated.

[2] = 14-days repeat-dose mouse tolerability test; settings: in vivo, 18 mg/kg/day, read-out: well-tolerated dose, 14-days repeat-dose
From the text: In addition the high efficacy against renal cancers, such drug must be well-tolerated.

Blood Plasma Conc. (axitinib) ([1]; T = 4 h): T = 4 h: 95.1 ng/mL
Blood Plasma Conc. (axitinib) ([1]; T = 6 h): T = 6 h: 35.4 ng/mL
Compound: CNC(=O)c1ccccc1Sc1ccc2c(/C=C/c3ccccn3)n[nH]c2c1 [Axitinib, N-methyl-2-[[3-[(E)-2-pyridin-2-ylethenyl]-1H-indazol-6-yl]sulfanyl]benzamide]

IC50 (Caki-1; Homo sapiens): 6.9 µM
Compound: CCN(CC)CCNC(=O)c1c(C)[nH]c(/C=C2\C(=O)Nc3ccc(F)cc32)c1C [Sunitinib, (Z)—N-(2-(diethylamino)ethyl)-5-((5-fluoro-2-oxoindolin-3-ylidene)methyl)-2,4-dimethyl-1H-pyrrole-3-carboxamide]

The remaining lines, values behind:

Compound: CNC(=O)c1ccccc1Sc1ccc2c(/C=C/c3ccccn3)nn(C(=O)N[C@@H](CCN)C(=O)N[C@H](C(=O)N[C@@H](CCN)C(=O)N[C@H]3CCNC(=O)[C@H]([C@@H](C)O)NC(=O)[C@H](CCN)NC(=O)[C@H](CCN)NC(=O)[C@H](CC(C)C)NC(=O)[C@@H](Cc4ccccc4)NC(=O)[C@H](CCN)NC3=O)[C@@H](C)O)c2c1 [Example 17] (X3-[Dab]T[Dab][Dab][Dab][dF]L[Dab][Dab]T; lactam 4-C)
IC50 (Caki-1): 8.6 µM

Compound: CNC(=O)c1ccccc1Sc1ccc2c(/C=C/c3ccccn3)nn(C(=O)N(CCNC(=O)CC[C@H](N)C(=O)O)CCC(=O)N[C@H](C(=O)N[C@@H](CCN)C(=O)N[C@H]3CCNC(=O)[C@H]([C@@H](C)O)NC(=O)[C@H](CCN)NC(=O)[C@H](CCN)NC(=O)[C@H](CC(C)C)NC(=O)[C@@H](Cc4ccccc4)NC(=O)[C@H](CCN)NC3=O)[C@@H](C)O)c2c1 [Example 29] (X1-T[Dab][Dab][Dab][dF]L[Dab][Dab]T; lactam 3-C; N-terminus assumed)
MTD at 336 h [2]: ≥ 18 mg/kg/day

Compound: Cc1ccc(Nc2nccc(N(C)c3ccc4c(C)n(C)nc4c3)n2)cc1S(N)(=O)=O [Pazopanib, 5-[[4-[(2,3-dimethylindazol-6-yl)-methylamino]pyrimidin-2-yl]amino]-2-methylbenzenesulfonamide]
IC50 (Caki-1; Homo sapiens): 19.4 µM
